Results on 1 sequence are retold here after article PMC8962522, “Direct interaction of TrkA/CD44v3 is essential for NGF-promoted aggressiveness of breast cancer cells” (Journal of Experimental & Clinical Cancer Research : CR, 2022).

“Also recorded” adds a separate entry of the source.

In one assay the test system is CD44v3. The assay can be described thus: MST binding of P4 to CD44v3. To be noted: Supplementary Fig. 6C, listed as P4. Here is the method: MST was conducted using an NT.115 A Pico MST instrument (Nano Temper Technologies GmbH) equipped with red and blue filter sets. The TrkA-His tagged extracellular domain protein (Ala 34-Gly423) (9966-TK-050; R&D Systems, United Kingdom), diluted to 200 nM in PBS-T buffer (supplied by the vendor), was labeled using a Monolith His-Tag Labeling Kit with RED-Tris-NTA (Nano Temper). The RED-Tris-NTA dye was diluted in PBS-T to 100 nM. The mix was incubated at RT in the dark for 30 min. Next, an extract expressing CD44v3-labeled protein (CD44v3-His) and ligand and/or TrkA was mixed at a 1:1 ratio and incubated at RT in the dark for 15 min. For the binding check, peptides and TrkA-His were used. […] The data were analyzed using MO Control Software (Nano Temper).
To block the TrkA-CD44v3 association, 4 mimetic peptides of CD44v3 were designed corresponding to zone 1 [(K) STSSNTISAG], zone 2 (WEPNEENEDE), zone 3 (RDRHLSFSGSG) and zone 4 (IDDDEDFISST) (Fig. 2F & G). The binding capacities of the CD44v3 mimetic peptides to TrkA were then measured by MST (Fig. 2H). […] To confirm mimetic peptide 4 binding, we assessed its ability to bind TrkA using nanoscale differential scanning fluorimetry (nanoDSF; Supplementary Fig. 6A & B).
Supplementary file 13046_2022_2314_MOESM3_ESM.pdf: Additional file 3: Supplementary Figure 1. […] CD44v3 and CD44v6 levels at the plasma membrane were assessed by flow cytometry (A-D). […]

A further assay concerns SUM-159-PT cells. Kind of assay: Scratch/wound migration assay, SUM-159-PT. The class given is cell-based. To be noted: 24 h after treatment; Supplementary Fig. 9 C & D; effects as in MDA-MB-231 (inhibition of NGF-induced migration).
The subject of assay [1] is MDA-MB-231 xenograft tumors. Kind of assay: MDA-MB-231 xenograft tumor growth in SCID mice. As to conditions: injected near the tumor five times in a 3-day interval, from mean tumor volume 100 mm^3; versus PBS; 10 mice per group. The class given is in vivo. Here is the method: MDA-MB-231 cells (2 × 10^6) were subcutaneously injected into the flanks of six-week-old female SCID mice. One month after injection, the mice were randomized into 2 groups and injected near the tumor with CD44v3 mimetic peptide 4 (P4) or not (control) five times in a 3-day interval. Tumor volume was determined throughout the experiment by measuring the length (l) and width (w) and was calculated as π/6 × l × w × […]. Animals were sacrificed using isoflurane anesthesia when the tumors reached a similar size, and the organs were immediately removed and stored in liquid nitrogen.
To assess the role of TrkA/CD44v3 in vivo, SCID mice were injected with MDA-MB-231 cells to generate xenografts. Primary tumor development and metastasis (to the lung, brain and liver) were analyzed (Fig. 6). […] The development of primary tumors was measured throughout the experiments. […] We also assessed the metastatic burden. […] Micrometastases were detected at the end of the experiment by PCR of human microglobulin in xenograft mice treated with or without the CD44v3 mimetic peptide (Fig. 6E). […]
Fig. 6 CD44v3 mimetic peptide 4 blocks MDA-MB-231 tumor growth and metastasis. […] Body weight (B) and tumor volume (C) were measured following CD44v3 mimetic peptide administration (10 mice per group). […]

Turning to “IDDDEDFISST [Peptide 4, mimetic peptide 4 (…) corresponding to the C-terminal region of CD44v3]”, the “binding to CD44v3 (in words)” value in the assay with CD44v3 is on record as “we did not detect CD44v3/P4 binding; also recorded: binds to TrkA but not to CD44v3”. The “effect on migration of SUM-159-PT cells” value with SUM-159-PT cells is “We also confirmed the effects of CD44v3 mimetic peptide 4 on migration in SUM-159-PT cells”. For the same sequence, the “tumor growth (in words)” value in assay [1] is reported as “significantly inhibited the growth of MDA-MB-231 cells in xenograft tumors”.
